Experimental data as given in patent publication US11702404B2, “GLP-1R modulating compounds” (priority 2019, dated 2023).
Like-named read-outs stand apart in the source and are kept apart here.

Tests used:
[1] = molecular target: GLP-1R (Homo sapiens, UniProt P43220); experiment: GLP-1R activation: cAMP increase in CHO cells stably expressing GLP-1R; assay type: cell-based
[2] = Microsomal stability, human liver microsomes (predicted hepatic clearance); conditions: predicted from in vitro microsomal stability data
[3] = cAMP increase, CHO cells stably expressing GLP-1R, 10 point dose response, 30 minutes incubation, read-out: EC50

GLP-1R, sequence (P43220 24-463): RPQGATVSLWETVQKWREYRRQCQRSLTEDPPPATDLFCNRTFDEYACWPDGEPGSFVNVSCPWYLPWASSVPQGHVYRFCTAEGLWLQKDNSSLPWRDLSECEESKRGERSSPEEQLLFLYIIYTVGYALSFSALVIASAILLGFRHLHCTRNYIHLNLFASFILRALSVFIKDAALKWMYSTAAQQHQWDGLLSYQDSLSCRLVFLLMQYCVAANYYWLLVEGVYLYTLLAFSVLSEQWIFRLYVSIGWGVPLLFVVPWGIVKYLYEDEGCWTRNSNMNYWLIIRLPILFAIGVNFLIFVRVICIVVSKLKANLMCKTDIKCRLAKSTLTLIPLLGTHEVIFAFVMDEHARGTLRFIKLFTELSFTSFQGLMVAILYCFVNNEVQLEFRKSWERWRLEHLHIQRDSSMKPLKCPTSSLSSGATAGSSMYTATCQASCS

| SMILES | EC50 [1, 3] [nM] | Predicted Hepatic Clearance (Pred. Cl.) [2] [mL/min/kg] | EC50 ([1]; EC50 (nM)) [nM] |
| --- | --- | --- | --- |
| N#Cc1ccc(COc2ncc(F)c(-c3ccc(Cc4nc5c(F)cc(C(=O)O)cc5n4C[C@@H]4CCO4)c(F)c3)n2)c(F)c1 [Example 880] | 0.26 | 7.5 | – |
| COCCn1c(Cc2ccc(-c3cccc(OCc4cccc5c4oc4ccccc45)n3)cc2F)nc2ccc(C(=O)O)cc21 [Example 265, 2-(4-(6-(dibenzo[b,d]furan-4-ylmethoxy)pyridin-2-yl)-2-fluorobenzyl)-1-(2-methoxyethyl)-1H-benzo[d]imidazole-6-carboxylic acid] | 2.08 | 5.67 | – |
| N#Cc1ccc(COc2nc(-c3ccc(Cc4nc5ccc(C(=O)O)cc5n4C[C@@H]4CCO4)cc3F)ccc2F)c(F)c1 [Example 125, (S)-2-(4-(6-((4-cyano-2-fluorobenzyl)oxy)-5-fluoropyridin-2-yl)-3-fluorobenzyl)-1-(oxetan-2-ylmethyl)-1H-benzo[d]imidazole-6-carboxylic acid] | 0.34 | 2.58 | – |
| N#Cc1ccc(COc2nc(-c3ccc(Cc4nc5c(F)cc(C(=O)O)cc5n4C[C@@H]4CCO4)cc3)ccc2F)c(F)c1 [Example 675] | 0.16 | 2.83 | – |
| N#Cc1ccc(COc2nc(-c3cc(F)c(Cc4nc5c(F)cc(C(=O)O)cc5n4C[C@@H]4CCO4)cc3F)ncc2F)c(F)c1 [Example 131, (S)-2-(4-(4-((4-cyano-2-fluorobenzyl)oxy)-5-fluoropyrimidin-2-yl)-2,5-difluorobenzyl)-4-fluoro-1-(oxetan-2-ylmethyl)-1H-benzo[d]imidazole-6-carboxylic acid] | 0.08 | 4 | – |
| COCCn1c(Cc2ccc(-c3cccc(OCc4cccc(S(C)(=O)=O)c4)n3)cc2F)nc2ccc(C(=O)O)cc21 [Example 495, 2-(2-fluoro-4-(6-((3-(methylsulfonyl)benzyl)oxy)pyridin-2-yl)benzyl)-1-(2-methoxyethyl)-1H-benzo[d]imidazole-6-carboxylic acid] | 777 | 5.83 | – |
| N#Cc1ccc(COc2cccc(-c3cc(F)c(Cc4nc5ccc(C(=O)O)cc5n4CC4COC4)cc3F)n2)c(F)c1 [Example 307, 2-(4-(6-((4-cyano-2-fluorobenzyl)oxy)pyridin-2-yl)-2,5-difluorobenzyl)-1-(oxetan-3-ylmethyl)-1H-benzo[d]imidazole-6-carboxylic acid] | 7.96 | 5.33 | – |
| COCCn1c(Cc2ccc(-c3cccc(OCc4ccccc4NC(=O)OC(C)(C)C)n3)cc2F)nc2ccc(C(=O)O)cc21 [Example 506, 2-(4-(6-((2-((tert-butoxycarbonyl)amino)benzyl)oxy)pyridin-2-yl)-2-fluorobenzyl)-1-(2-methoxyethyl)-1H-benzo[d]imidazole-6-carboxylic acid] | 2180 | 12.5 | – |
| N#Cc1ccc(COc2cccc(-c3ccc(Cc4nc5ccc(C(=O)O)cc5n4CC4CCS4(=O)=O)c(F)c3)n2)c(F)c1 (single isomer, unassigned) [Example 70, 2-(4-(6-((4-cyano-2-fluorobenzyl)oxy)pyridin-2-yl)-2-fluorobenzyl)-1-((1,1-dioxidothietan-2-yl)methyl)-1H-benzo[d]imidazole-6-carboxylic acid] | 64 | 2.17 | – |
| COCCn1c(Cc2ccc(-c3cccc(OCc4ccc(C#N)cc4F)n3)c(N)c2)nc2ccc(C(=O)O)cc21 [Example 259, 2-(3-amino-4-(6-((4-cyano-2-fluorobenzyl)oxy)pyridin-2-yl)benzyl)-1-(2-methoxyethyl)-1H-benzo[d]imidazole-6-carboxylic acid] | 66.9 | 3.3 | – |
| COCCn1c(Cc2ccc(-c3cccc(OCc4ccc(C5(C#N)CC5)cc4)n3)cc2F)nc2ccc(C(=O)O)cc21 [Example 266, 2-(4-(6-((4-(1-cyanocyclopropyl)benzyl)oxy)pyridin-2-yl)-2-fluorobenzyl)-1-(2-methoxyethyl)-1H-benzo[d]imidazole-6-carboxylic acid] | 51.4 | 6.17 | – |
| COCCn1c(Cc2cc(F)c(-c3cccc(OCc4ccc(C(F)(F)F)nc4)n3)cc2F)nc2ccc(C(=O)O)cc21 [Example 861] | 16.5 | 1.83 | – |
| N#Cc1ccc(COc2nc(-c3ccc(Cc4nc5c(F)cc(C(=O)O)cc5n4C[C@@H]4CCO4)cc3F)ccc2F)c(F)c1 [Example 780] | 0.12 | 1.83 | – |
| COCCn1c(Cc2ccc(-c3cccc(OCc4ccc(C#N)cc4F)n3)cc2OC(F)F)nc2ccc(C(=O)O)cc21 [Example 42, 2-(4-(6-((4-cyano-2-fluorobenzyl)oxy)pyridin-2-yl)-2-(difluoromethoxy)benzyl)-1-(2-methoxyethyl)-1H-benzo[d]imidazole-6-carboxylic acid] | 38.2 | 3.83 | – |
| COCCn1c(Cc2cc(F)c(-c3cccc(OCc4ccc(C#N)cn4)n3)cc2F)nc2ccc(C(=O)O)cc21 [Example 870] | 17.6 | 1.83 | – |
| CO[C@H]1COC[C@H]1n1c(Cc2cc(F)c(-c3cccc(OCc4ccc(C#N)cc4F)n3)cc2F)nc2ccc(C(=O)O)cc21 (single isomer, unassigned) [Example 891, 2-(4-(6-((4-cyano-2-fluorobenzyl)oxy)pyridin-2-yl)-2,5-difluorobenzyl)-1-(cis-4-methoxytetrahydrofuran-3-yl)-1H-benzo[d]imidazole-6-carboxylic acid] | 0.25 | 6.67 | – |
| O=C(O)c1ccc2nc(Cc3cc(F)c(-c4cccc(OCc5ccc(C(F)F)cc5F)n4)cc3F)n(C[C@@H]3CCO3)c2c1 [Example 800] | 0.1 | 1.83 | – |
| COCCn1c(Cc2ccc(-c3cccc(O[C@H](C)c4ccccc4)n3)cc2F)nc2ccc(C(=O)O)cc21 [Example 515, (R)-2-(2-fluoro-4-(6-(1-phenylethoxy)pyridin-2-yl)benzyl)-1-(2-methoxyethyl)-1H-benzo[d]imidazole-6-carboxylic acid] | 876 | 7.5 | – |
| O=C(O)c1ccc2nc(Cc3cc(F)c(-c4cccc(OCc5ccc(C(F)F)cc5F)n4)cc3F)n(CC3(CF)CC3)c2c1 [Example 719] | 0.37 | 1.83 | – |
| COCCn1c(Cc2cc(F)c(-c3nccc(OCc4ccc(C#N)cc4F)n3)cc2F)nc2ccc(C(=O)O)cc21 [Example 159, 2-(4-(4-((4-cyano-2-fluorobenzyl)oxy)pyrimidin-2-yl)-2,5-difluorobenzyl)-1-(2-methoxyethyl)-1H-benzo[d]imidazole-6-carboxylic acid] | – | 6 | 7.78 |
| COCCn1c(Cc2cc(F)c(-c3cccc(OCc4ccc(F)cc4C)n3)cc2F)nc2ccc(C(=O)O)cc21 [Example 816] | 1 | 9.5 | – |
| N#Cc1ccc(COc2nccc(-c3ccc(Cc4nc5c(F)cc(C(=O)O)cc5n4C[C@@H]4CCO4)c(F)c3)n2)c(F)c1 [Example 406, (S)-2-(4-(2-((4-cyano-2-fluorobenzyl)oxy)pyrimidin-4-yl)-2-fluorobenzyl)-4-fluoro-1-(oxetan-2-ylmethyl)-1H-benzo[d]imidazole-6-carboxylic acid] | 0.18 | 3.83 | – |
| CCn1nncc1Cn1c(Cc2ccc(-c3cccc(OCc4ccc(C#N)cc4F)n3)cc2F)nc2ccc(C(=O)O)cc21 [Example 370, 2-(4-(6-((4-cyano-2-fluorobenzyl)oxy)pyridin-2-yl)-2-fluorobenzyl)-1-((l-ethyl-1H-1,2,3-triazol-5-yl)methyl)-1H-benzo[d]imidazole-6-carboxylic acid] | 3.34 | 6.7 | – |
| CC(C)(C#N)Cn1c(Cc2ccc(-c3cccc(OCc4ccc(C#N)cc4F)n3)c(F)c2)nc2ccc(C(=O)O)cc21 [Example 279, 2-(4-(6-((4-cyano-2-fluorobenzyl)oxy)pyridin-2-yl)-3-fluorobenzyl)-1-(2-cyano-2-methylpropyl)-1H-benzo[d]imidazole-6-carboxylic acid] | 3.07 | 8.3 | – |
| COc1cc(Cl)ccc1COc1cccc(-c2cc(F)c(Cc3nc4ccc(C(=O)O)cc4n3CC3(CF)CC3)cc2F)n1 [Example 445, 2-(4-(6-((4-chloro-2-methoxybenzyl)oxy)pyridin-2-yl)-2,5-difluorobenzyl)-1-((1-(fluoromethyl)cyclopropyl)methyl)-1H-benzo[d]imidazole-6-carboxylic acid] | 0.5 | 9.67 | – |
| COCCn1c(Cc2ccc(-c3nc(OCc4ccc(C#N)cc4F)cs3)cc2F)nc2ccc(C(=O)O)cc21 [Example 84, 2-(4-(4-((4-cyano-2-fluorobenzyl)oxy)thiazol-2-yl)-2-fluorobenzyl)-1-(2-methoxyethyl)-1H-benzo[d]imidazole-6-carboxylic acid] | 54.3 | 6.33 | – |
| COCCn1c(C2(c3ccc(-c4cccc(OCc5ccc(C#N)cc5F)n4)cc3)CC2)nc2ccc(C(=O)O)cc21 [Example 32, 2-(1-(4-(6-((4-cyano-2-fluorobenzyl)oxy)pyridin-2-yl)phenyl)cyclopropyl)-1-(2-methoxyethyl)-1H-benzo[d]imidazole-6-carboxylic acid] | > 1000 | 7.83 | – |
| N#Cc1ccc(COc2cccc(-c3cc(F)c(Cc4nc5ccc(C(=O)O)cc5n4CC45CC(CO4)C5)cc3F)n2)c(F)c1 [Example 898, 1-((2-oxabicyclo[2.1.1]hexan-1-yl)methyl)-2-(4-(6-((4-cyano-2-fluorobenzyl)oxy)pyridin-2-yl)-2,5-difluorobenzyl)-1H-benzo[d]imidazole-6-carboxylic acid] | 1.5 | 9.67 | – |
